Measurements published in patent publication US20080175794A1, “Substituted Pyridazinyl- and Pyrimidinyl-Quinolin-4-Ylamine Analogues” (NEUROGEN CORPORATION, priority 2005, published 2008).

Molecular target: T1, human capsaicin receptor (Homo sapiens, UniProt Q8NER1)
T1 construct: expressed in transfected cells
Experiment: Calcium mobilization assay, determination of antagonist activity (Example 6)
Format: cell-based
Conditions: Table III; assay provided in Example 6; cells expressing human capsaicin receptor, capsaicin at EC50
Outline: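 Stable HEK293 clones expressing full-length human capsaicin receptor, loaded with Fluo-3 AM in KRH buffer pH 7.4 (1–2 h, 37 °C). Test compound (1–5 μM final) preincubated 0.5–6 h at room temperature in the dark, then capsaicin added at its EC50. FLIPR/Fluoroskan calcium signal; IC50 as concentration halving the capsaicin response.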

T1 sequence (Q8NER1 whole entry): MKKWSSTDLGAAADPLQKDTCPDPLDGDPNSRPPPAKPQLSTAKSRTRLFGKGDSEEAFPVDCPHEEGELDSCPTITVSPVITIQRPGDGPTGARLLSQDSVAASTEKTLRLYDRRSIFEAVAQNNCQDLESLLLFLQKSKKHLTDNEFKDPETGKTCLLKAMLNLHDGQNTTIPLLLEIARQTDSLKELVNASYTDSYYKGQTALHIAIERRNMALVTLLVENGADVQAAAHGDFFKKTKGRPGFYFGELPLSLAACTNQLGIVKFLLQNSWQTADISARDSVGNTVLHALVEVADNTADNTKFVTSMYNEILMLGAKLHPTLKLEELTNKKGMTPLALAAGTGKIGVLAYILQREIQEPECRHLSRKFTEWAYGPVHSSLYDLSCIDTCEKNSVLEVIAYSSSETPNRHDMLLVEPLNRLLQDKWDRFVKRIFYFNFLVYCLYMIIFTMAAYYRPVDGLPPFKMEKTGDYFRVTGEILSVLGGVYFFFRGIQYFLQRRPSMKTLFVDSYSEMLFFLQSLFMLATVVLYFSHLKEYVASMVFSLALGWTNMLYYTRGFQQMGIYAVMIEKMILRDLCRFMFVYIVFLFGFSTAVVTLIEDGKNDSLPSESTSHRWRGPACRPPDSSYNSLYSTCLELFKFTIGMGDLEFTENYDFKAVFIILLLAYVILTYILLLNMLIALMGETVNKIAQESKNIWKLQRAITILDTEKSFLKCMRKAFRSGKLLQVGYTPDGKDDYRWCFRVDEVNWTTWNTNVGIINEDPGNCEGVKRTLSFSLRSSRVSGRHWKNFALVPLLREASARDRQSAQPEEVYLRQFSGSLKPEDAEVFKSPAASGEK

Row | Compound | IC50 [nM]
1 | CCCCNc1cc(C(F)(F)F)c(-c2cnc3c(Nc4ccc(C(F)(F)F)cn4)ccnc3n2)nn1 [Compound 104, 3-[6-(butylamino)-4-(trifluoromethyl)pyridazin-3-yl]-N-[5-(trifluoromethyl)pyridin-2-yl]pyrido[2,3-b]pyrazin-8-amine] | < 1000
2 | CC(C)CCNc1cc(C(F)(F)F)c(-c2cnc3c(Nc4ccc(C(F)(F)F)cn4)ccnc3n2)nn1 [Compound 106, 3-{6-[(3-methylbutyl)amino]-4-(trifluoromethyl)pyridazin-3-yl}-N-[5-(trifluoromethyl)pyridin-2-yl]pyrido[2,3-b]pyrazin-8-amine] | < 1000
3 | FC(F)(F)c1ccc(Nc2ccnc3nc(-c4nnc(NC5CCC5)cc4C(F)(F)F)cnc23)nc1 [Compound 107, 3-[6-(cyclobutylamino)-4-(trifluoromethyl)pyridazin-3-yl]-N-[5-(trifluoromethyl)pyridin-2-yl]pyrido[2,3-b]pyrazin-8-amine] | < 1000
4 | CCC(C)Nc1cc(C(F)(F)F)c(-c2cnc3c(Nc4ccc(C(F)(F)F)cn4)ccnc3n2)nn1 (stereo not shown) [Compound 108, 3-[6-(sec-butylamino)-4-(trifluoromethyl)pyridazin-3-yl]-N-[5-(trifluoromethyl)pyridin-2-yl]pyrido[2,3-b]pyrazin-8-amine] | < 1000
5 | FC(F)(F)c1ccc(Nc2ccnc3nc(-c4nnc(NC5CCCC5)cc4C(F)(F)F)cnc23)nc1 [Compound 109, 3-[6-(cyclopentylamino)-4-(trifluoromethyl)pyridazin-3-yl]-N-[5-(trifluoromethyl)pyridin-2-yl]pyrido[2,3-b]pyrazin-8-amine] | < 1000
6 | FC(F)(F)c1ccc(Nc2ccnc3nc(-c4nnc(NC5CCCCC5)cc4C(F)(F)F)cnc23)nc1 [Compound 110, 3-[6-(cyclohexylamino)-4-(trifluoromethyl)pyridazin-3-yl]-N-[5-(trifluoromethyl)pyridin-2-yl]pyrido[2,3-b]pyrazin-8-amine] | < 1000
7 | CC(C)C(C)Nc1cc(C(F)(F)F)c(-c2cnc3c(Nc4ccc(C(F)(F)F)cn4)ccnc3n2)nn1 (stereo not shown) [Compound 111, 3-{6-[(1,2-dimethylpropyl)amino]-4-(trifluoromethyl)pyridazin-3-yl}-N-[5-(trifluoromethyl)pyridin-2-yl]pyrido[2,3-b]pyrazin-8-amine] | < 1000
8 | FC(F)(F)c1ccc(Nc2ccnc3nc(-c4nnc(NCC5CCCO5)cc4C(F)(F)F)cnc23)nc1 (stereo not shown) [Compound 112, 3-{6-[(tetrahydrofuran-2-ylmethyl)amino]-4-(trifluoromethyl)pyridazin-3-yl}-N-[5-(trifluoromethyl)pyridin-2-yl]pyrido[2,3-b]pyrazin-8-amine] | < 1000
9 | NC(=O)CNc1cc(C(F)(F)F)c(-c2cnc3c(Nc4ccc(C(F)(F)F)cn4)ccnc3n2)nn1 [Compound 113, N2-[5-(trifluoromethyl)-6-(8-{[5-(trifluoromethyl)pyridin-2-yl]amino}pyrido[2,3-b]pyrazin-3-yl)pyridazin-3-yl]glycinamide] | < 1000
10 | OCCCCCNc1cc(C(F)(F)F)c(-c2cnc3c(Nc4ccc(C(F)(F)F)cn4)ccnc3n2)nn1 [Compound 115, 5-{[5-(trifluoromethyl)-6-(8-{[5-(trifluoromethyl)pyridin-2-yl]amino}pyrido[2,3-b]pyrazin-3-yl)pyridazin-3-yl]amino}pentan-1-ol] | < 1000
11 | CC(O)CNc1cc(C(F)(F)F)c(-c2cnc3c(Nc4ccc(C(F)(F)F)cn4)ccnc3n2)nn1 (stereo not shown) [Compound 116, 1-{[5-(trifluoromethyl)-6-(8-{[5-(trifluoromethyl)pyridin-2-yl]amino}pyrido[2,3-b]pyrazin-3-yl)pyridazin-3-yl]amino}propan-2-ol] | < 1000
12 | CC(CO)Nc1cc(C(F)(F)F)c(-c2cnc3c(Nc4ccc(C(F)(F)F)cn4)ccnc3n2)nn1 (stereo not shown) [Compound 117, 2-{[5-(trifluoromethyl)-6-(8-{[5-(trifluoromethyl)pyridin-2-yl]amino}pyrido[2,3-b]pyrazin-3-yl)pyridazin-3-yl]amino}propan-1-ol] | < 1000
13 | CCC(CO)Nc1cc(C(F)(F)F)c(-c2cnc3c(Nc4ccc(C(F)(F)F)cn4)ccnc3n2)nn1 (stereo not shown) [Compound 118, 2-{[5-(trifluoromethyl)-6-(8-{[5-(trifluoromethyl)pyridin-2-yl]amino}pyrido[2,3-b]pyrazin-3-yl)pyridazin-3-yl]amino}butan-1-ol] | < 1000
14 | CCCC(CO)Nc1cc(C(F)(F)F)c(-c2cnc3c(Nc4ccc(C(F)(F)F)cn4)ccnc3n2)nn1 (stereo not shown) [Compound 119, 2-{[5-(trifluoromethyl)-6-(8-{[5-(trifluoromethyl)pyridin-2-yl]amino}pyrido[2,3-b]pyrazin-3-yl)pyridazin-3-yl]amino}pentan-1-ol] | < 1000
15 | FC(F)(F)c1ccc(Nc2ccnc3nc(-c4nnc(N5CCCC5)cc4C(F)(F)F)cnc23)nc1 [Compound 120, 3-[6-pyrrolidin-1-yl-4-(trifluoromethyl)pyridazin-3-yl]-N-[5-(trifluoromethyl)pyridin-2-yl]pyrido[2,3-b]pyrazin-8-amine] | < 1000
16 | CCCN(C)c1cc(C(F)(F)F)c(-c2cnc3c(Nc4ccc(C(F)(F)F)cn4)ccnc3n2)nn1 [Compound 121, 3-{6-[methyl(propyl)amino]-4-(trifluoromethyl)pyridazin-3-yl}-N-[5-(trifluoromethyl)pyridin-2-yl]pyrido[2,3-b]pyrazin-8-amine] | < 1000
17 | CCCCN(C)c1cc(C(F)(F)F)c(-c2cnc3c(Nc4ccc(C(F)(F)F)cn4)ccnc3n2)nn1 [Compound 122, 3-{6-[butyl(methyl)amino]-4-(trifluoromethyl)pyridazin-3-yl}-N-[5-(trifluoromethyl)pyridin-2-yl]pyrido[2,3-b]pyrazin-8-amine] | < 1000
18 | CN(CC#N)c1cc(C(F)(F)F)c(-c2cnc3c(Nc4ccc(C(F)(F)F)cn4)ccnc3n2)nn1 [Compound 124, {methyl[5-(trifluoromethyl)-6-(8-{[5-(trifluoromethyl)pyridin-2-yl]amino}pyrido-[2,3-b]pyrazin-3-yl)pyridazin-3-yl]amino}acetonitrile] | < 1000
19 | C#CCN(C)c1cc(C(F)(F)F)c(-c2cnc3c(Nc4ccc(C(F)(F)F)cn4)ccnc3n2)nn1 [Compound 125, 3-{6-[methyl(prop-2-yn-1-yl)amino]-4-(trifluoromethyl)pyridazin-3-yl}-N-[5-(trifluoromethyl)pyridin-2-yl]pyrido[2,3-b]pyrazin-8-amine] | < 1000
20 | CCN(CC)c1cc(C(F)(F)F)c(-c2cnc3c(Nc4ccc(C(F)(F)F)cn4)ccnc3n2)nn1 [Compound 126, 3-[6-(diethylamino)-4-(trifluoromethyl)pyridazin-3-yl]-N-[5-(trifluoromethyl)pyridin-2-yl]pyrido[2,3-b]pyrazin-8-amine] | < 1000
21 | CCN(c1cc(C(F)(F)F)c(-c2cnc3c(Nc4ccc(C(F)(F)F)cn4)ccnc3n2)nn1)C(C)C [Compound 128, 3-{6-[ethyl(isopropyl)amino]-4-(trifluoromethyl)pyridazin-3-yl}-N-[5-(trifluoromethyl)pyridin-2-yl]pyrido[2,3-b]pyrazin-8-amine] | < 1000
22 | CC1CCCN1c1cc(C(F)(F)F)c(-c2cnc3c(Nc4ccc(C(F)(F)F)cn4)ccnc3n2)nn1 (stereo not shown) [Compound 129, 3-[6-(2-methylpyrrolidin-1-yl)-4-(trifluoromethyl)pyridazin-3-yl]-N-[5-(trifluoromethyl)pyridin-2-yl]pyrido[2,3-b]pyrazin-8-amine] | < 1000
